According to US5034419A, “N-cycloalkylalkylamines, process for their preparation, their use as medicament and their synthesis intermediates” (L'Oreal, priority 1988, dated 1991):
Structures can show the parent of a compound that is named as a salt. Where two headings read alike, the source gives them in different places.

Key:
[1] = molecular target: T1, sigma receptors (Cavia porcellus, UniProt Q60492); test: in vitro affinity for sigma receptors, competition with (+)[3H]SKF10,047; type: binding, guinea-pig (cerebral membranes)
T1 construct: sigma receptors of the cerebral membranes of the guinea-pig used in this study; from tissue; host or cells: guinea-pig cerebral membranes
T1 sequence (Q60492 whole entry): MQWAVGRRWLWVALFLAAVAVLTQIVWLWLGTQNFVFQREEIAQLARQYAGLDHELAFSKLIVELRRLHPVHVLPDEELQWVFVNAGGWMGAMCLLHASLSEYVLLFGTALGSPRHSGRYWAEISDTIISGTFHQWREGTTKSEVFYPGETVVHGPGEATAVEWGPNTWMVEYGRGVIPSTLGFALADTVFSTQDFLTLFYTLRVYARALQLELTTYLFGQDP
Method: The test is carried out by incubating solutions of suitable concentrations of the products with standard samples of membranes and determining, after filtration, the residual radioactivity of the solution.

[2] = molecular target: mu receptors; test: in vitro affinity for mu receptors; type: binding; settings: Table 3; read-out: mu rec. IC50
Method: (§1) The "in vitro" study of the affinity of the compounds according to the invention for the three opium receptors is carried out in accordance with the technique described by F. Roman and coll. in J. Pharm. Pharmacol. 1987, 39, p. 404-407 and the study of the affinity for PCP receptors is carried out in accordance with the technique described by Vignon J. and coll. in "Brain Res." 1983; 280, p. 194-7 and 1986; 378, p. 133-41.
(§2) The results shown in table 3 are, for each receptor studied, expressed in IC50, which are the nanomolar concentrations of the dissolved products which are capable of inhibiting 50% of the bonds between the specific radioactive ligand to the receptor under consideration.

[3] = molecular target: T2, delta receptors (Cavia porcellus, UniProt A0A286XTF2); test: in vitro affinity for delta receptors; type: binding; settings: Table 3; read-out: delta rec. IC50
T2 construct: from tissue
T2 sequence (A0A286XTF2 1-366): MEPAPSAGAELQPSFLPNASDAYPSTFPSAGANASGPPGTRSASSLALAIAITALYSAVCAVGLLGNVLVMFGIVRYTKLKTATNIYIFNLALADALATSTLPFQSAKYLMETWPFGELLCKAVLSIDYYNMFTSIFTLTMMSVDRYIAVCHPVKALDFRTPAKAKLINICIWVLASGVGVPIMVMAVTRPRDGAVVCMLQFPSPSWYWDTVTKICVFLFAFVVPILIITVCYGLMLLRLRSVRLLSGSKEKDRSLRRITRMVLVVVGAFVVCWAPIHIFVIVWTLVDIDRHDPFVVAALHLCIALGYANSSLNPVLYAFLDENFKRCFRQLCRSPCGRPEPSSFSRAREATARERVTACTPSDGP
Method: as §1, §2

[4] = molecular target: T3, kappa receptors (Cavia porcellus, UniProt P41144); test: in vitro affinity for kappa receptors; type: binding; settings: Table 3; read-out: kappa rec. IC50
T3 construct: from tissue
T3 sequence (P41144 whole entry): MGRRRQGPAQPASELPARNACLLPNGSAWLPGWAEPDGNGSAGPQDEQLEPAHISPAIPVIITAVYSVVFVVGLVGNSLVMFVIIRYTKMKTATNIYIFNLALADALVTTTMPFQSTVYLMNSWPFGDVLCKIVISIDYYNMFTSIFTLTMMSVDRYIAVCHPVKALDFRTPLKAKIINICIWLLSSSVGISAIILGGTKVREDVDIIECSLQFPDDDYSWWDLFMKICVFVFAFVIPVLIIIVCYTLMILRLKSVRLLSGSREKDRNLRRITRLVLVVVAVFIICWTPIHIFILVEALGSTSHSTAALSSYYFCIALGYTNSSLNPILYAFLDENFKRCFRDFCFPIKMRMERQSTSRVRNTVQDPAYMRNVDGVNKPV
Method: as §1, §2

[5] = molecular target: PCP receptors; test: in vitro affinity for phencyclidine (PCP) receptors; type: binding; settings: Table 3; read-out: PCP rec. IC50
Method: as §1, §2

[6] = protection from convulsions induced by picrotoxin in mice; type: in vivo, "Swiss" male mice; settings: for i.p.: % prot. (inhibition of convulsions induced by picrotoxin): 50 mg/kg i.p., picrotoxin 24 mg/kg i.p. 30 minutes later; for i.p.: % prot. (inhibition of convulsions induced by picrotoxin) / p.o.: % prot. (inhibition of convulsions induced by picrotoxin): * p<0.05, ** p<0.01, *** p<0.001; for p.o.: % prot. (inhibition of convulsions induced by picrotoxin): 100 mg/kg p.o., picrotoxin 24 mg/kg i.p. 60 minutes later; for ED50: Mus musculus
Method: b) The psychotropic properties of the compounds were determined by the protection from convulsions induced by picrotoxin in mice, which was realized in accordance with a method derived from that of Krall and coll., "Epilepsia", 1978, 19, p. 409-428.
The administration of picrotoxin to animals causes a convulsive attack characterized by a myoclonic extension syndrome followed by extension of the limbs leading to death of the animals. Certain substances, in particular those which act on the GABA/benzodiazepine/Cl-ionophor complex, provide protection of the animals from these convulsive attacks.
In practice, the study is carried out on groups of 10 "Swiss" male mice weighing about 20 g, to which the product under investigation is administered in aqueous solution either intraperitoneally (i.p.) or orally (p.o.).
An intraperitoneal injection of a solution of picrotoxin in an amount of 24 mg/kg in a volume of 0.2 ml per animal is then performed, either 30 minutes after intraperitoneal administration of the product or 60 minutes after oral administration of the product, the dose of the product injected in this way causing a clonic attack which leads to death of the untreated animals. Under the conditions of the test, suppression of the tonic extension phase is found in the animals treated.
The results are expressed:
either as the percentage of animals protected from this phase under the action of 50 mg/kg compound under investigation administered i.p. or 100 mg/kg p.o.,
or in the ED50 for each of these groups, which is the effective dose of the compound under investigation expressed in mg/kg which protects 50% of animals from this extension phase, the significance value of the results generally being indicated in the following manner: […]

[7] = inhibition of gastro-duodenal ulcers caused by cysteamine; type: in vivo, Wistar female rats; settings: Rattus norvegicus; cysteamine hydrochloride 400 mg/kg s.c.; products orally or subcutaneously; read-out: ED50 - ulceration scores
Method: This activity is set in relation to the capacity of the products to cause an increase in the alkaline secretion in the duodenum in anaesthetized animals.
In this test, groups of 6 Wistar female rats with an average weight of 200 g receive a subcutaneous injection of cysteamine hydrochloride in an amount of 400 mg/kg. The products under investigation are administered orally or subcutaneously 1 h or, respectively, 30 minutes before the ulcerogenic agent.
Ten hours thereafter, the rats are sacrificed by elongation and their stomach and duodenum are removed, rinsed with physiological solution and mounted on a card. The presence of ulcers in the antro-pyloric-duodenal zone is examined and their area, expressed in mm^2, is evaluated by multiplying the two main perpendicular axis of the lesion. Statistical analysis of the results is performed with the aid of the Student test for the ulcerated areas in comparison with a control group receiving only excipient.
The results presented in table 5 are expressed in ED50 of ulceration scores, which are the effective doses, expressed in mg/kg product, which cause inhibition of 50% of the ulcerations caused by cysteamine.

[8] = antagonism of amnesia caused by scopolamine, passive avoidance test; type: in vivo, mice
Method: The animal is introduced into the illuminated compartment, and when it moves to the dark compartment it receives an electric current (0.35 mA) through the base until it returns to the illuminated compartment, from where it is then removed.
After 24 hours, the operation is repeated. The mouse is replaced in the apparatus and it avoids entering into the dark compartment. The time which elapses before passage into this compartment is recorded; under the conditions of the experiment, the efficacy of the compounds under investigation in antagonizing the amnesic effect of scopolamine, which is administered intraperitoneally in an amount of 1 mg/kg 30 minutes before the animal is first introduced into the apparatus, can be evaluated.
In control mice which have received only scopolamine, the time elapsed before passage after 24 hours is remarkably lower than that observed in the untreated animals.
The study of the products according to the invention by this method is performed on groups of 18 mice and the products are administered orally on the first day in an amount of 0.25 mg/kg 30 minutes before administration of scopolamine i.p.

[9] = alkaline duodenal secretion in anaesthetized rats; type: in vivo, male rats; settings: 1 mg/kg intravenously
Method: The activity of the products on alkaline duodenal secretion in rats is studied in accordance with a technique described by FLEMSTROM and coll. Gastroenterology, 1983, 84, p. 787-794.
The test comprises determination every 10 minutes, for 3 hours and in situ, of the alkaline secretion of a duodenal segment 12 mm in length, with no Brunner glands and situated 2 cm from the pylorus.
The study is performed on male rats of about 350 g previously anaesthetized, in which the duodenal segment chosen in cannulated by 2 glass tubes in accordance with the technique described by the author, and in which a luminal perfusate consisting of 5 ml isotonic NaCl solution is maintained at 37° C.
The variations in the intraluminal alkaline secretion are measured by pHmetry every 10 minutes by means of an automated system maintaining a constant pH of 7.4 by in situ addition of a 0.04N solution of hydrochloric acid. Fifty minutes after the start of the experiment, the products under investigation are administered intravenously or intraarterially in an amount of 1 mg/kg and the volume of hydrochloric acid introduced, which is a reflection of the in situ increase in alkaline secretion, is measured every 10 minutes for 3 hours with respect to the start of the experiment, that is to say for 130 minutes after injection of the product under investigation.
The following are determined for each product:
a) The maximum increase in secretion in micro-eq/cm/h under the action of the drug, taking into account the basal secretion of the same animals observed for 50 minutes before administration of the product.
The results are shown in table 6, which follows, for the products (I) according to the invention administered intravenously in an amount of 1 mg/kg.

[10] = Table 2, (+)[3H]SKF10,047, guinea-pig cerebral membranes, read-out: IC50 (bonding affinity to sigma receptors)
[11] = Table 3, read-out: sigma rec. IC50
[12] = IC50 (bonding affinity to sigma receptors), Table 2, (+)[3H]SKF10,047, guinea-pig cerebral membranes
[13] = 0.25 mg/kg orally, scopolamine 1 mg/kg i.p. 30 minutes later, latency after 24 hours, hydrochloride
[14] = po, 1 h, read-out: p.o.: ED50 (inhibition of convulsions induced by picrotoxin)

SMILES: CCC(CC=Cc1ccccc1)(c1ccccc1)N(C)C[C@@H]1C[C@H]1c1ccccc1 (relative stereo) [Example 6, α-Cinnamyl-α-ethyl-N-methyl-N-(trans-2-phenyl-cyclopropyl)-methyl-benzylamine]
- IC50 [1, 10]: 0.246 µM

SMILES: CC(C)C(CC=Cc1ccccc1)(c1ccccc1)N(C)CC1CC1 (stereo not drawn) [Example 14, α-Cinnamyl-N-cyclopropylmethyl-α-isopropyl-N-methyl-benzylamine]
- IC50 [1, 11]: 0.669 µM
- IC50 [2]: 34.2 µM
- IC50 [3]: > 100 µM
- IC50 [4]: 76 µM
- IC50 [5]: 14.2 µM

SMILES: CCC(CC=Cc1ccccc1)(NC[C@@H]1C[C@H]1c1ccccc1)c1ccccc1 (relative stereo) [Example 3, α-Cinnamyl-α-ethyl-N-(trans-2-phenyl-cyclopropyl)methyl-benzylamine]
- IC50 [1, 10]: 0.368 µM

SMILES: CCC(C[C@@H]1C[C@H]1c1ccccc1)(c1cccs1)N(C)CC1CC1 (relative stereo) [Example 24, trans-N-Cyclopropylmethyl-α-ethyl-N-methyl-α-(2-phenyl-1-cyclopropylmethyl)-2-thiophenemethylamine]
- i.p.: % prot. (inhibition of convulsions induced by picrotoxin) [6]: 50%
- p.o.: % prot. (inhibition of convulsions induced by picrotoxin) [6]: 50%
- IC50 [1, 10]: 0.029 µM
- IC50 [2]: 3.02 µM
- IC50 [3]: 57 µM
- IC50 [4]: 9.1 µM
- ED50 [7]: 45.7 mg/kg

SMILES: CCC(CC=Cc1ccc(Cl)c(Cl)c1)(c1ccc(Cl)cc1)N(C)CC1CC1 (stereo not drawn) [Example 16, α-(3',4'-Dichloro)cinnamyl-N-cyclopropyl-methyl-α-ethyl-N-methyl-p-chlorobenzylamine]
- p.o.: % prot. (inhibition of convulsions induced by picrotoxin) [6]: 60%

SMILES: CCC(CC=Cc1ccccc1)(c1ccccc1)N(C)CC1CC1 (single isomer, unassigned) [Example 11, (-)-α-Cinnamyl-N-cyclopropyl-methyl-α-ethyl-N-methyl-benzylamine hydrochloride]
- i.p.: % prot. (inhibition of convulsions induced by picrotoxin) ([6]; hydrochloride): 70%
- IC50 [1, 12]: 0.102 µM
- IC50 ([1]; sigma rec. IC50, Table 3): 0.21 µM
- IC50 [3]: 41.6 µM
- IC50 [4]: 5.14 µM
- % antagonism of the amnesia [8, 13]: 38%

SMILES: CCC(CC=Cc1ccccc1)(c1ccccc1)N(C)CC1CC1 (single isomer, unassigned) [Example 10, (+)-α-Cinnamyl-N-cyclopropyl-methyl-α-ethyl-N-methyl-benzylamine hydrochloride]
- i.p.: % prot. (inhibition of convulsions induced by picrotoxin) ([6]; hydrochloride): 50%
- IC50 [1, 12]: 0.013 µM
- IC50 ([1]; sigma rec. IC50, Table 3): 0.013 µM
- IC50 [3]: 67.9 µM
- IC50 [4]: 23.8 µM
- % antagonism of the amnesia [8, 13]: 76%
- ED50 [7]: 5 mg/kg
- Increase AUC 1 2 h ([9]; AUC of alkaline flow rate 1 h to 2 h compared with control animals): 66.2
- Increase in secretion ([9]; maximum increase, anaesthetized rats): 7.5 micro-eq/cm/h

SMILES: CCC(CC=Cc1ccccc1)(c1ccco1)N(C)CC1CC1 (stereo not drawn) [Example 20, α-Cinnamyl-N-cyclopropylmethyl-α-ethyl-N-methyl-2-furfurylamine]
- p.o.: % prot. (inhibition of convulsions induced by picrotoxin) [6]: 60%

SMILES: CCC(CC=Cc1ccccc1)(NCC1(C)CC1)c1ccccc1 (stereo not drawn) [Example 2, α-Cinnamyl-α-ethyl-N-(1-methylcyclopropyl)-methyl-benzylamine]
- p.o.: % prot. (inhibition of convulsions induced by picrotoxin) [6]: 90%

SMILES: CN(CC1CC1)C(C)(CC=Cc1ccccc1)c1ccccc1 (stereo not drawn) [Example 13, α-Cinnamyl-N-cyclopropylmethyl-N-α-dimethyl-benzylamine]
- ED50 ([6]; ip, 0.5 h, read-out: i.p.: ED50 (inhibition of convulsions induced by picrotoxin)): 32.5 mg/kg
- ED50 [6, 14]: 64.4 mg/kg
- IC50 [1, 11]: 0.337 µM
- IC50 [2]: 10.2 µM
- IC50 [3]: 9.37 µM
- IC50 [4]: 8.68 µM
- IC50 [5]: 10.5 µM

SMILES: CCC(C[C@@H]1C[C@H]1c1ccccc1)(c1ccco1)N(C)CC1CC1 (relative stereo) [Example 23, trans-N-Cyclopropylmethyl-α-ethyl-N-methyl-α-(2-phenyl-1-cyclopropylmethyl)-2-furfurylamine]
- i.p.: % prot. (inhibition of convulsions induced by picrotoxin) [6]: 50%

SMILES: CCC(C[C@@H]1C[C@H]1c1ccccc1)(c1ccsc1)N(C)CC1CC1 (relative stereo) [Example 25, trans-N-Cyclopropylmethyl-α-ethyl-N-methyl-α-(2-phenyl-1-cyclopropylmethyl)-3-thiophenemethylamine]
- i.p.: % prot. (inhibition of convulsions induced by picrotoxin) [6]: 50%
- p.o.: % prot. (inhibition of convulsions induced by picrotoxin) [6]: 50%

SMILES: CCC(CC=Cc1ccccc1)(c1ccccc1)N(C)CCC1CC1 (stereo not drawn) [Example 8, α-Cinnamyl-N-cyclopropylethyl-α-ethyl-N-methyl-benzylamine]
- ED50 [6, 14]: 53.6 mg/kg
- IC50 [1, 10]: 0.021 µM
- IC50 [2]: 2.04 µM
- IC50 [3]: 7.55 µM
- IC50 [4]: 1.52 µM
- IC50 [5]: 25.9 µM

SMILES: NC(=O)CN1CCCC1=O [piracetam, reference compound]
- % antagonism of the amnesia ([8]; 2048 mg/kg p.o.): 109%
- % antagonism of the amnesia ([8]; 2048 mg/kg p.o., listed as piracetam): about 100%
